Measurements: a melting point compilation (Tetko et al.; mined from patent text by program, amines drawn as free bases though some values may be those of a salt)

Row | SMILES | melting point [°C]
1 | CCOC(OCC)N1C(=O)C(c2ncnc3cc(OCCOC)c(OC)cc23)c2cc(F)ccc21 (stereo not given) | 245 to 255
2 | N#Cc1nn(-c2c(Cl)cc(C(F)(F)F)cc2Cl)cc1C=C(Cl)Cl | 99 to 101
3 | COc1ccc(-c2c[nH]cc2C#N)cc1OC | 212 to 214
4 | C[C@@H](Cc1cc(F)cc2ccoc12)NC(=O)OC(C)(C)C | 120 to 121
5 | CC(C)C(NS(=O)(=O)c1ccccc1)C(=O)NO (stereo not given) | 154 to 155
6 | CCOc1ccc(OC)c2c1CCC([N+](=O)[O-])=C2 | 90 to 92
7 | CN1c2cccc3c2N(CCC3)S1(=O)=O | 103 to 104
8 | CCC(=O)c1cc2cc(OC)ccc2[nH]1 | 170 to 172
9 | COC(=O)c1cccc2c1ccn2Cc1ccc(OCc2ccc3ccccc3n2)cc1 | 128 to 131
10 | CCOCc1cc(OC)c(-c2ccc(C[C@H](NC(=O)c3c(Cl)cccc3Cl)C(=O)O)cc2)c(OC)c1 | 196 to 198
11 | O=C(O)c1ccc2c(=O)[nH]c(=O)n(CCCCN3CCC(OC(c4ccccc4)c4ccccc4)CC3)c2c1 | 177 to 179
12 | CCCCc1nn(-c2ccc(C(F)(F)F)cn2)cc1CO | 110 to 111
13 | COc1cc(OC)cc(-c2nnc(-c3cc(OC)cc(OC)c3)o2)c1 | 167 to 170
14 | COc1ccccc1CCC1CCCCn2c1nc(-c1ccncn1)cc2=O (racemic) | 155 to 157
15 | O=C(c1cc(=O)c2cc(O)ccc2[nH]1)N1CCC(COc2ccccc2)CC1 | 130
16 | CCCS(=O)(=O)N(c1cc(Cl)ccc1C(=O)OC)S(=O)(=O)CCC | 156 to 158
17 | CNC(=S)c1c(C(F)(F)F)nc(C(F)F)c(C(=O)OC)c1NC(C)C | 129 to 131
18 | Cc1ccc(C=CC(=O)NN2CC(=O)NC2=O)cc1Cl | 271 to 273
19 | CCOc1cccc(C(S)C(=O)O)c1 (stereo not given) | 105 to 107
20 | C#Cc1cnn2c(C(F)(F)F)cc(-c3ccc(Cl)c(C)c3)nc12 | 166
21 | O=C(Nc1cccc2c(OC(=O)c3c(Cl)cccc3Cl)ccnc12)c1c(Cl)cccc1Cl | 248
22 | CCOC(=O)CNC(=O)CCCCCNC(=O)OC(C)(C)C | 76 to 77
23 | COC(=O)[C@H](CO)NC(=O)[C@H](Cc1ccccc1)NC(=O)OC(C)(C)C | 90 to 93
24 | C=C1CS(=O)C2C(NC(=O)COc3ccccc3)C(=O)N2C1C(=O)OCc1ccc([N+](=O)[O-])cc1 (stereo not given) | 200 to 201
25 | CSc1c(C(Cc2ccccc2)C(=O)O)ccc2c3ccccc3n(Cc3ccccc3)c12 (stereo not given) | 154 to 156

Row | SMILES | melting point [°C]
26 | CC(C)N(CCNC(=O)N1CCCC(S(=O)(=O)c2ccccc2)C1)C(C)C (stereo not given) | 82.5 to 84
27 | CCCCOc1nc(N)c2[nH]c(=O)n(CCS(=O)(=O)c3cccc(CC(=O)OC)c3)c2n1 | 246 to 247
28 | Cc1cc(C)c2ccc(N)nc2n1 | 215 to 220
29 | CC(C)(C)Sc1cnn(-c2c(Cl)cc(C(F)(F)F)cc2Cl)c1N | 129
30 | N#Cc1cn(C[C@@H]2CN(c3ccc(N4CCC5(CC4)OCCO5)c(F)c3)C(=O)O2)nn1 | 158 to 160
31 | CC(=O)Oc1ccc2nc(C(N)=O)nc(O)c2c1 | 250
32 | CCC(=O)c1cc(Cl)c(Cl)c2c1OCC(C(=O)O)O2 (stereo not given) | 229 to 231
33 | CCNC(=O)c1ccc(C=C(C)c2ccc3c(c2)C(C)(C)CCO3)cc1 | 161 to 163
34 | NC(=O)N(O)CC=Cc1cccc(F)c1Sc1ccc(Cl)cc1 | 125 to 127
35 | CN1N=C(c2ccc(Cl)cc2)CC1=O | 189
36 | CNC(=O)C1CCc2c(C(=O)c3ccccc3)cccc21 (stereo not given) | 145 to 146
37 | O=C(Nc1cccnc1)N1CCc2c1ccc(Cl)c2Cl | > 240
38 | CC(C)CNc1cc(C(=O)O)cc(S(N)(=O)=O)c1Sc1ccc(N)cc1 | 250 to 252
39 | CSc1nc2ccc(C(F)(F)F)cc2[nH]1 | 145 to 146
40 | CC(C)(C)CC(C)(C)NC(=O)c1cc(C(C)(C)C)c(OC(=O)c2cc(C(C)(C)C)c(O)c(C(C)(C)C)c2)c(C(C)(C)C)c1 | 213 to 215
41 | CCOC(=O)c1c(-c2cccc(Cl)c2)csc1N1C(=O)c2ccccc2C1=O | 169
42 | [N-]=[N+]=NC(=O)c1csc(Cl)n1 | > 250
43 | CCCCN(CCCC)C(=N)c1ccc(-c2ccc([N+](=O)[O-])cc2)o1 | 100 to 101
44 | Cc1nc(C(N)=O)n(COCc2ccccc2)c1Sc1ccccc1 | 153 to 154
45 | CS(=O)(=O)Nc1ccc(C(=O)NCC23CCCN(CCC2)C3)cc1 | 137 to 139
46 | O=C(O)CCCNC(=O)c1ccccc1NC(=O)c1ccccc1Br | 117 to 118
47 | O=C(CCN1CCN(c2ncc(F)cn2)CC1)Cc1cccs1 | 77 to 78
48 | CCOC(=O)c1cn(CCCl)c2cc(-n3cccc3)c(F)cc2c1=O | 254 to 256
49 | CCOc1cc2c(Nc3cc(OC)c(Cl)cc3Cl)c(C#N)cnc2cc1OCCOC | 215 to 217
50 | COc1cccc(C(=O)NN=C2CCc3ccccc3C2)c1C | 138
